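Exposure lasted 48 hours, with cells grown in 96-well plates and compounds tested at five concentrations. Definition used: TGI = concentration required for complete inhibition of growth.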
How the values were obtained:
Assay in all cases: DTP human tumour cell line panel, 48 h
[1] = test system: A498 renal
[2] = test system: COLO 205 colon
[3] = test system: U251 CNS
[4] = test system: HCC-2998 colon
[5] = test system: MDA-N
[6] = test system: NCI/ADR-RES ovarian
[7] = test system: NCI-H226 lung
[8] = test system: HOP-62 NSCLC
[9] = test system: HOP-92 NSCLC
[10] = test system: RPMI-8226 leukemia
[11] = test system: SNB-19 CNS
[12] = test system: OVCAR-4 ovarian
[13] = test system: SK-MEL-28 melanoma
[14] = test system: IGROV1 ovarian
[15] = test system: BT-549 breast
[16] = test system: CCRF-CEM leukemia
[17] = test system: UACC-62 melanoma
[18] = test system: SF-295 CNS
[19] = test system: HCT-15 colon
[20] = test system: NCI-H460 lung
[21] = test system: NCI-H522 lung
[22] = test system: SN12C renal
[23] = test system: NCI-H23 lung
[24] = test system: ACHN renal
[25] = test system: RXF 393 renal
[26] = test system: MDA-MB-435
[27] = test system: SF-268 CNS
[28] = test system: SW-620 colon
[29] = test system: LOX IMVI melanoma
[30] = test system: MOLT-4 leukemia
[31] = test system: MDA-MB-231 breast
[32] = test system: SK-MEL-5 melanoma
[33] = test system: 786-0 renal
[34] = test system: OVCAR-3 ovarian
[35] = test system: OVCAR-5 ovarian
[36] = test system: A549 NSCLC
[37] = test system: HT29 colon
[38] = test system: KM12 colon
[39] = test system: MCF7 breast
[40] = test system: OVCAR-8 ovarian
[41] = test system: K-562 leukemia
[42] = test system: EKVX NSCLC
[43] = test system: SNB-75 CNS
[44] = test system: TK-10 renal
[45] = test system: T-47D breast
[46] = test system: SF-539 CNS
[47] = test system: SK-MEL-2 melanoma
[48] = test system: UO-31 renal
[49] = test system: UACC-257 melanoma
[50] = test system: M14 melanoma
[51] = test system: MALME-3M melanoma
[52] = test system: SK-OV-3 ovarian
[53] = test system: PC-3 prostate
[54] = test system: HS 578T breast
[55] = test system: DU-145 prostate
[56] = test system: HL-60(TB) leukemia
[57] = test system: HCT-116 colon

**Q.** With `C[C@]12CC[C@H]3[C@@H](CCC4=CC(=O)CC[C@@]43C)[C@@H]1CC[C@@H]2OC(=O)c1cccc2c(=O)c3ccccc3[nH]c12` as the molecule, how does the TGI [1] read?
**A.** > 100 µM

**Q.** What about the TGI [2] of the same molecule?
**A.** > 100 µM

**Q.** And the TGI [3]?
**A.** > 100 µM

**Q.** What about the TGI [4] of the same molecule?
**A.** > 100 µM

**Q.** And the TGI [5]?
**A.** > 100 µM

**Q.** And the TGI [6]?
**A.** > 100 µM

**Q.** And the TGI [7]?
**A.** > 100 µM

**Q.** What about the TGI [8] of the same molecule?
**A.** > 100 µM

**Q.** And the TGI [9]?
**A.** > 100 µM

**Q.** And the TGI [10]?
**A.** 87.7 µM

**Q.** What about the TGI [11] of the same molecule?
**A.** > 100 µM

**Q.** And the TGI [12]?
**A.** > 100 µM

**Q.** What about the TGI [13] of the same molecule?
**A.** > 100 µM

**Q.** What about the TGI [14] of the same molecule?
**A.** > 100 µM

**Q.** And the TGI [15]?
**A.** > 100 µM

**Q.** And the TGI [16]?
**A.** > 100 µM

**Q.** What about the TGI [17] of the same molecule?
**A.** > 100 µM

**Q.** And the TGI [18]?
**A.** > 100 µM

**Q.** And the TGI [19]?
**A.** > 100 µM

**Q.** What about the TGI [20] of the same molecule?
**A.** > 100 µM

**Q.** And the TGI [21]?
**A.** > 100 µM

**Q.** And the TGI [22]?
**A.** > 100 µM

**Q.** What about the TGI [23] of the same molecule?
**A.** > 100 µM

**Q.** And the TGI [24]?
**A.** > 100 µM

**Q.** What about the TGI [25] of the same molecule?
**A.** > 100 µM

**Q.** And the TGI [26]?
**A.** > 100 µM

**Q.** And the TGI [27]?
**A.** > 100 µM

**Q.** What about the TGI [28] of the same molecule?
**A.** > 100 µM

**Q.** And the TGI [29]?
**A.** 62.1 µM

**Q.** And the TGI [30]?
**A.** 89.2 µM

**Q.** What about the TGI [31] of the same molecule?
**A.** > 100 µM

**Q.** What about the TGI [32] of the same molecule?
**A.** > 100 µM

**Q.** What about the TGI [33] of the same molecule?
**A.** 38.6 µM

**Q.** What about the TGI [34] of the same molecule?
**A.** > 100 µM

**Q.** And the TGI [35]?
**A.** > 100 µM

**Q.** And the TGI [36]?
**A.** > 100 µM

**Q.** What about the TGI [37] of the same molecule?
**A.** > 100 µM

**Q.** And the TGI [38]?
**A.** > 100 µM

**Q.** What about the TGI [39] of the same molecule?
**A.** > 100 µM

**Q.** And the TGI [40]?
**A.** > 100 µM

**Q.** What about the TGI [41] of the same molecule?
**A.** 80 µM

**Q.** And the TGI [42]?
**A.** > 100 µM

**Q.** And the TGI [43]?
**A.** > 100 µM

**Q.** What about the TGI [44] of the same molecule?
**A.** > 100 µM

**Q.** And the TGI [45]?
**A.** > 100 µM

**Q.** And the TGI [46]?
**A.** > 100 µM

**Q.** And the TGI [47]?
**A.** > 100 µM

**Q.** And the TGI [48]?
**A.** > 100 µM

**Q.** And the TGI [49]?
**A.** > 100 µM

**Q.** What about the TGI [50] of the same molecule?
**A.** > 100 µM

**Q.** And the TGI [51]?
**A.** > 100 µM

**Q.** What about the TGI [52] of the same molecule?
**A.** > 100 µM

**Q.** What about the TGI [53] of the same molecule?
**A.** > 100 µM

**Q.** And the TGI [54]?
**A.** > 100 µM

**Q.** `N#CCCN(CCC#N)c1ccc(/C=C2\N=C(c3ccccc3)N(c3ccccc3)C2=O)cc1` was tested. Which TGI [1] did it give?
**A.** > 100 µM

**Q.** And the TGI [2]?
**A.** > 100 µM

**Q.** And the TGI [3]?
**A.** > 100 µM

**Q.** What about the TGI [5] of the same molecule?
**A.** > 100 µM

**Q.** And the TGI [6]?
**A.** > 100 µM

**Q.** What about the TGI [7] of the same molecule?
**A.** > 100 µM

**Q.** And the TGI [8]?
**A.** > 100 µM

**Q.** What about the TGI [9] of the same molecule?
**A.** > 100 µM

**Q.** What about the TGI [10] of the same molecule?
**A.** > 100 µM

**Q.** And the TGI [55]?
**A.** > 100 µM

**Q.** And the TGI [11]?
**A.** > 100 µM

**Q.** What about the TGI [12] of the same molecule?
**A.** > 100 µM

**Q.** And the TGI [13]?
**A.** > 100 µM

**Q.** What about the TGI [14] of the same molecule?
**A.** > 100 µM

**Q.** What about the TGI [15] of the same molecule?
**A.** > 100 µM

**Q.** What about the TGI [16] of the same molecule?
**A.** > 100 µM

**Q.** And the TGI [17]?
**A.** > 100 µM

**Q.** And the TGI [56]?
**A.** > 100 µM

**Q.** And the TGI [18]?
**A.** > 100 µM

**Q.** And the TGI [19]?
**A.** > 100 µM

**Q.** And the TGI [20]?
**A.** > 100 µM

**Q.** What about the TGI [21] of the same molecule?
**A.** > 100 µM

**Q.** And the TGI [22]?
**A.** > 100 µM

**Q.** And the TGI [24]?
**A.** > 100 µM

**Q.** And the TGI [25]?
**A.** > 100 µM

**Q.** What about the TGI [26] of the same molecule?
**A.** > 100 µM

**Q.** And the TGI [28]?
**A.** > 100 µM

**Q.** What about the TGI [29] of the same molecule?
**A.** > 100 µM

**Q.** What about the TGI [30] of the same molecule?
**A.** > 100 µM

**Q.** And the TGI [31]?
**A.** > 100 µM

**Q.** And the TGI [32]?
**A.** > 100 µM

**Q.** What about the TGI [33] of the same molecule?
**A.** > 100 µM

**Q.** What about the TGI [34] of the same molecule?
**A.** > 100 µM

**Q.** And the TGI [35]?
**A.** > 100 µM

**Q.** And the TGI [36]?
**A.** > 100 µM

**Q.** And the TGI [37]?
**A.** > 100 µM

**Q.** And the TGI [38]?
**A.** > 100 µM

**Q.** And the TGI [39]?
**A.** > 100 µM

**Q.** What about the TGI [40] of the same molecule?
**A.** > 100 µM

**Q.** And the TGI [41]?
**A.** > 100 µM

**Q.** What about the TGI [42] of the same molecule?
**A.** > 100 µM

**Q.** And the TGI [44]?
**A.** > 100 µM

**Q.** What about the TGI [45] of the same molecule?
**A.** > 100 µM

**Q.** What about the TGI [46] of the same molecule?
**A.** > 100 µM

**Q.** And the TGI [57]?
**A.** > 100 µM

**Q.** And the TGI [47]?
**A.** > 100 µM

**Q.** And the TGI [48]?
**A.** > 100 µM

**Q.** What about the TGI [49] of the same molecule?
**A.** > 100 µM

**Q.** And the TGI [50]?
**A.** > 100 µM

**Q.** What about the TGI [51] of the same molecule?
**A.** > 100 µM

**Q.** What about the TGI [52] of the same molecule?
**A.** > 100 µM

**Q.** And the TGI [53]?
**A.** > 100 µM

**Q.** And the TGI [54]?
**A.** 87.6 µM

Reference: PubChem BioAssay (NCI)
